This is an account of results in patent publication US7923579B2, “Tricyclic hydroxamate and benzamide derivatives, compositions and methods” (Exonhit Therapeutics S.A., priority 2003, dated 2011).

Data set [1] relates to HDAC activity of Hela (human cervical cancer cell line) cells nuclear extract. Nature of the data set: HDAC Fluorescent Activity Assay (Biomol Fluor de Lys substrate) with Hela nuclear extract. The data set is classed as biochemical. Conditions: read-out: IC50 (dose of compound leading to 50% of HDAC activity), Hela nuclear extract 5 μg, room temperature 0.5 h. The source says: Therefore, a fast, non isotopic method has been chosen that relies on a fluorescent HDAC substrate. This assay is a two step enzymatic reaction. The substrate used is a peptidic substrate with a ε-acetylated lysyl moiety followed by a 4-methylcoumarin-7-amide (AMC) moiety at their carboxy terminus. In the first reaction catalysed by HDACs, acetate is released from ε-acetylated lysine residue. In the second reaction, the deacetylated peptides are recognized as substrate by trypsin, which cleaves the deacetylated peptide after the lysine residue. This cleavage releases the AMC and the fluorescence is monitored by a fluorometer.
In order to evaluate the effect of one compound on HDAC activity, the HDAC Fluorescent Activity Assay/Drug Discovery Kit® developed by Biomol and based on the two step enzymatic reaction described above was used with modifications. The substrate of the Biomol assay, called Fluor de Lys™, comprises an acetylated lysine side chain with an AMC moiety.
Then, 5 μg of Hela (human cervical cancer cell line) cells nuclear extract is added in each well. The enzymatic reaction is initiated by the addition of the diluted Fluor de Lys™ substrate and the microplate is incubated at room temperature (e.g. 25° C.) for 0.5 h. In order to stop the reaction and to produce the fluorophore release, 50 μl of the Fluor de Lys™ Developer solution is added in each well and the microplate is incubated at room temperature (e.g. 25° C.) for 0.25 h. Finally, the fluorescence is measured by a fluorimeter (Fluoroskan Ascent FL, Thermolabsystem) at excitation wavelength of 360 nm and emission wavelength of 460 nm.

Data set [2] deals with HDAC. Conditions: read-out: HDAC activity is inhibited (reported concentration); depending of the HDAC activity assay used; cited from earlier work.

A word on the melting point: it is the temperature of the solid-liquid transition.

`CC1(C)CCC(C)(C)c2cc(NC(=O)c3ccc(C(=O)NO)cc3)ccc21` [EHT 7706, N-(1,2,3,4-Tetrahydro-1,1,4,4-tetramethylnaphthalen-6-yl)-N′-hydroxyterephthalamide] returned a melting point of 211 °C. Further, in data set [1], the IC50 was 1.18 µM.
On to `CC1(C)CCC(C)(C)c2cc(C(=O)Nc3ccc(C(F)(F)C(=O)NO)cc3)ccc21` [EHT 4996, N-(4-((hydroxycarbamoyl)difluoromethyl)phenyl)-5,6,7,8-tetrahydro-5,5,8,8-tetramethylnaphthalene-2-carboxamide], for which the melting point stood at 224.2 °C.
`CC1(C)CCC(C)(C)c2cc(C(F)(F)C(=O)NCc3ccc(C(=O)NO)cc3)ccc21` [EHT 7800, 4-((2,2-Difluoro-2-(1,2,3,4-tetrahydro-1,1,4,4-tetramethylnaphthalen-7-yl)acetamido)methyl)-N-hydroxybenzamide]: the IC50 in data set [1] was found to be 4.1 µM.
Turning to `CC1(C)CCC(C)(C)c2cc(C(F)(F)C(=O)Nc3ccc(C(=O)NO)cc3)ccc21` [EHT 9299, 4-(2,2-Difluoro-2-(1,2,3,4-tetrahydro-1,1,4,4-tetramethylnaphthalen-7-yl)acetamido)-N-hydroxybenzamide], the IC50 in data set [1] came to 0.424 µM.
Same read-out and setting: for `CC1(C)CCC(C)(C)c2cc(C(=O)Nc3ccc(C(=O)NO)cc3)ccc21` [EHT 3741, N-(4-(Hydroxycarbamoyl)phenyl)-5,6,7,8-tetrahydro-5,5,8,8-tetramethylnaphthalene-2-carboxamide] the value was 5.13 µM.
Take `CC(/C=C/C(=O)NO)=C\[C@@H](C)C(=O)c1ccc(N(C)C)cc1` [TSA, Trichostatin A]: the IC50 in data set [2] was 0.0014 to 0.0026 µM.
